Data: PubChem BioAssay (NCI)
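Assay format: 96-well plates, 48-hour exposure. TGI: concentration producing complete growth inhibition.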

Experiments:
Test in all cases: inhibition of tumour cell growth, NCI panel, 48 h
SK-MEL-2 melanoma = test system: SK-MEL-2 melanoma
SK-MEL-28 melanoma = test system: SK-MEL-28 melanoma
SNB-75 CNS = test system: SNB-75 CNS
SN12C renal = test system: SN12C renal
SK-OV-3 ovarian = test system: SK-OV-3 ovarian
SK-MEL-5 melanoma = test system: SK-MEL-5 melanoma
HCT-15 colon = test system: HCT-15 colon
CCRF-CEM leukemia = test system: CCRF-CEM leukemia
U251 CNS = test system: U251 CNS
T-47D breast = test system: T-47D breast
SF-295 CNS = test system: SF-295 CNS
MDA-MB-231 breast = test system: MDA-MB-231 breast
NCI/ADR-RES ovarian = test system: NCI/ADR-RES ovarian
NCI-H226 lung = test system: NCI-H226 lung
NCI-H460 lung = test system: NCI-H460 lung
HL-60(TB) leukemia = test system: HL-60(TB) leukemia
HS 578T breast = test system: HS 578T breast
IGROV1 ovarian = test system: IGROV1 ovarian

Structure (SMILES) | TGI (SK-MEL-2 melanoma) [µM] | TGI (SK-MEL-28 melanoma) [µM] | TGI (SNB-75 CNS) [µM] | TGI (SN12C renal) [µM] | TGI (SK-OV-3 ovarian) [µM] | TGI (SK-MEL-5 melanoma) [µM] | TGI (HCT-15 colon) [µM] | TGI (CCRF-CEM leukemia) [µM] | TGI (U251 CNS) [µM] | TGI (T-47D breast) [µM] | TGI (SF-295 CNS) [µM] | TGI (MDA-MB-231 breast) [µM] | TGI (NCI/ADR-RES ovarian) [µM] | TGI (NCI-H226 lung) [µM] | TGI (NCI-H460 lung) [µM] | TGI (HL-60(TB) leukemia) [µM] | TGI (HS 578T breast) [µM] | TGI (IGROV1 ovarian) [µM]
Cn1c(=O)c2c(nc3n2CCCC(=O)N3CCCCl)n(C)c1=O | > 100 | > 100 | > 100 | > 100 | > 100 | > 100 | > 100 | > 100 | > 100 | > 100 | > 100 | > 100 | > 100 | > 100 | > 100 | > 100 | > 100 | > 100
CC(NNC(=O)c1ccncc1)c1ccccc1 (configuration not stated) | > 100 | > 100 | > 100 | > 100 | > 100 | > 100 | > 100 | > 100 | > 100 | > 100 | > 100 | > 100 | > 100 | > 100 |  | > 100 | > 100 | > 100
NCCCN(CCCCN(CCCN)Cc1ccccc1)Cc1ccccc1 |  | > 100 | 37.6 | 42.5 | > 100 | > 100 | > 100 | > 100 | > 100 | > 100 | > 100 | > 100 | > 100 | > 100 | 32.2 | > 100 | 35.7 | 37.1
CN(C)c1ccc(N=C2N=C(Nc3ccccc3)C(=Nc3ccccc3)S2)cc1 | > 100 | > 100 | 81.4 | > 100 | > 100 | > 100 | > 100 | > 100 |  | > 100 | > 100 | > 100 | > 100 | > 100 | > 100 | > 100 | > 100 | > 100
CC(C(=O)NCNC(=O)c1ccccc1)C(=O)Nc1ccccc1 (configuration not stated) | > 100 |  | > 100 | > 100 | > 100 | > 100 | > 100 | > 100 | > 100 | > 100 | > 100 | > 100 | > 100 | > 100 | > 100 | > 100 | > 100 | > 100
CCOC(=O)c1c(NC(=S)Nc2ccccc2)sc2c1CCN(C)C2 | > 100 |  |  | > 100 |  | > 100 | > 100 | > 100 |  | > 100 | > 100 | > 100 | > 100 | > 100 | > 100 | > 100 | > 100 | > 100
COC(=O)CN(CC(=O)NCCNC(=O)OC(C)(C)C)C1CCCCC1N(CC(=O)OC)CC(=O)OC (configuration not stated) | > 100 | > 100 |  | > 100 | > 100 | > 100 | > 100 | > 100 | > 100 | > 100 | > 100 | > 100 | > 100 | > 100 | > 100 | > 100 | > 100 | > 100
